Reference: PMC12951551, “Do Amino-Oxetanes Resemble Amides? A Matched Molecular Pairs Property and Structural Comparison” (Journal of Medicinal Chemistry, 2026)
In brackets after ≈: the same amount, converted by molar mass.

Key:
Kinetic solubility = format: physicochemical; conditions: for solubility at 24 h: aqueous pH buffer, aqueous buffer, kinetic from dmso stock, 37 °C, 600 µM start; for Kinetic solubility, in words: across acidic, neutral, and basic conditions, compared with benzamide counterpart
Method: Aqueous buffer preparation: pH 3: 50 µL of 1N hydrochloric acid was added to 500 mL of deionized water. The solution was titrated with 1N hydrochloric acid to pH 3, and back titrated with 1N sodium hydroxide. pH 7.4: 100 mM sodium phosphate buffer is made by adding 56.4 g of dibasic sodium phosphate and 10.3 g of monobasic sodium phosphate to 4 L of deionized water. 250 µL of 100 mM sodium phosphate buffer was diluted with 250 µL of deionized water. The solution was titrated with 1N hydrochloric acid to pH 7.4, and back titrated with 1N sodium hydroxide. pH 10: Fisher Scientific pH 10 buffer (SB116-500) containing potassium hydroxide, potassium carbonate, and potassium […]
pH 12.8: 30 mL of 1N NaOH was added to 200 mL of deionized water. The solution was titrated with 1N sodium hydroxide to pH 12.8 and back titrated with 1N hydrochloric acid.
Kinetic solubility: Samples were diluted to 600 µM in the appropriate pH buffer (pH: 3, 7.4, 10) and to 600 µM (assumed 100% solubility) in a DMSO standard. Samples were mixed thoroughly and incubated at 37 °C for 24 h.
Following incubation, pH samples were transferred to a […] PVDF (low binding) and filtered to remove any precipitate. The filtrate was collected and analyzed via MS/MS. The ratio of MS response (DMSO:pH) is taken and multiplied by the initial 600 µM concentration to determine the concentration (solubility) of the samples in pH buffers. […]
(§1) Permeability assay (RRCK): Ralph Russ canine kidney cells were used for permeability measurements using a cell monolayer in 96-transwell format. The detailed assay conditions have been reported previously.9 Test compounds were added to the donor wells and a buffer was added to the receiver wells to start the apical to basolateral transport assay.
(§2) Time 0 and 1.5 h incubation samples were taken for LC-MS/MS analysis. Apparent permeability (Papp) was calculated using the equation below (1), where Area is the surface area of the cell monolayer (0.0625 cm2), CD(0) is the […]

[1] = Permeability assay (RRCK); format: in vitro ADME, canine; conditions: dog, MDCK, apical to basolateral, average of 2 runs, footnote b = only one replicate
human hepatocytes = test: Human Hepatocyte (HHEP) stability assay, clearance; format: in vitro ADME; conditions: human hepatocytes, 0.5 million cells/mL, 1 µM test compound
Method: Human Hepatocyte (HHEP) assay: The high throughput HHEP stability assay was performed in a 384-well format (Greiner Bio-One, Monroe, NC). The cryopreserved HHEP were thawed, and re-suspended in Williams E medium (WEM, custom formula number 91-5233EC; Invitrogen, Grand Island, NY) supplemented with HEPES and Na2CO3. The cells were counted using the Trypan Blue exclusion method. A multidrop liquid dispenser (Multidrop DW, Thermo Scientific, Waltham, MA) was used to add the HHEP suspensions to the 384-well plates. The cell plates were covered and transferred to a Cytomat 2 incubator (ThermoFisher) and Biomek i7 (Beckman Coulter, Indianapolis, IN), equipped with three 3position MéCour heat exchangers. Test compounds were diluted on the Biomek i7 with buffer (15 µL) and added to the HHEP (30 µL). The final incubation contained 0.5 million cells/mL and 1 µM test compound in 45 µL total volume containing 0.01% DMSO. The incubation was carried out at 37 °C in the Cytomat 2 incubator (relative humidity ≥ 90%, 5% CO2/95% air). At various time points (2, 4, 11, 45, 75, 120, and 240 min), the plate was pulled out from the incubator by the Biomek i7 robot and put on the MéCour heated exchanger. Samples (3 µL) were transferred to a 384-well plate containing 30 µL acetonitrile with an internal standard (IS) to quench the reaction. Water (60 µL) was added to the quenched plate to dilute the organic solvent content for LC-MS/MS analysis. The plates were centrifuged at 3000 rpm for 10 min at 4 °C, sealed and subsequently analyzed using LC-MS/MS without further transfer of the supernatant.
Propranolol (CYP2D6), midazolam (CYP3A) and triazolam (CYP3A, low clearance), naloxone (UGT2B7), carbazeran (AO), and verapamil (CYP3A, CYP2C8) were used as positive controls. For CYP inhibition study, 1 mM ABT (a pan-cYP inhibitor) was pre-incubated with HHEP for 30 minutes at 37 °C before adding test compounds. Values are n >3 unless […]
as §1, §2

[2] = Shake flask LogD (SFLogD) assay; format: physicochemical; conditions: pH = 7.4; octanol/water shake flask; average of 2 runs unless otherwise stated
Method: as §1, §2

[3] = Experimental pKaH (amine basicity); format: physicochemical
Description: The influence of basicity is an ongoing rationale for inclusion of the oxetanes in drug candidates, providing the potential to attenuate off-target effects including hERG channel inhibition. […] As comparison against the benzamide analogue is not possible, we instead looked at the head-to-head comparison between amino-oxetane 4a and benzylamine 18 (Figure ).

Compound	solubility at 24 h (Kinetic solubility; pH 3)	solubility at 24 h (Kinetic solubility; pH 7.4)	solubility at 24 h (Kinetic solubility; pH 10)	Papp at 1.5 h [1]	HHEPG clearance (human hepatocytes)	logD [2]	pKa ([3]; Table S2)	pKaH ([3]; text and Figure 6)	Kinetic solubility, in words (Kinetic solubility)
COc1ccc(C(=O)Nc2ccc(OC)nc2)cc1 [8b, 4-Methoxy-N-(6-Methoxypyridin-3-yl)Benzamide]	50 µM (≈ 12.9 µg/mL)	31 µM (≈ 8.01 µg/mL)	24 µM (≈ 6.2 µg/mL)	20.9 ×10⁻⁶ cm/s	13 μL min^−1 million^−1	2.49			
COc1ccc(CN2CCOCC2)cc1 [compound 18, 4-(4-Methoxybenzyl)Morpholine]							7.25	7.25	
FC(F)(F)c1ncc(-c2ccc(C3(N4CCOCC4)COC3)cc2)cn1 [11a, 4-(3-(4-(2-(Trifluoromethyl)Pyrimidin-5-yl)Phenyl)Oxetan-3-yl)Morpholine]				< 36.1 ×10⁻⁶ cm/s	< 2 μL min^−1 million^−1	1.66			
c1cc(C2(N3CCOCC3)COC2)ccc1N1CCOCC1 [12a, 4-(4-(3-Morpholinooxetan-3-yl)Phenyl)Morpholine]				39.3 ×10⁻⁶ cm/s	11 μL min^−1 million^−1	0.331			
COc1ccc(C2(N(C3CC3)C3CCN(C(C)=O)CC3)COC2)cc1 [5a, 1-(4-(Cyclopropyl(3-(4-Methoxyphenyl)Oxetan-3-yl)Amino)Piperidin-1-yl)Ethan-1-One]	299 µM (≈ 103 µg/mL)	223 µM (≈ 76.8 µg/mL)	195 µM (≈ 67.2 µg/mL)	38.8 ×10⁻⁶ cm/s	38 μL min^−1 million^−1	1.68			
COc1ccc(C2(Nc3ccc(NC(C)=O)cc3)COC2)cc1 [6a, N-(4-((3-(4-Methoxyphenyl)Oxetan-3-yl)Amino)Phenyl)Acetamide]	509 µM (≈ 159 µg/mL)	505 µM (≈ 158 µg/mL)	500 µM (≈ 156 µg/mL)		112 μL min^−1 million^−1				higher solubility
COc1ccc(C(=O)N(C2CC2)C2CCN(C(C)=O)CC2)cc1 [5b, N-(1-Acetylpiperidin-4-yl)-N-Cyclopropyl-4-Methoxybenzamide]	465 µM (≈ 147 µg/mL)	467 µM (≈ 148 µg/mL)	299 µM (≈ 94.6 µg/mL)	31.7 ×10⁻⁶ cm/s	< 4 μL min^−1 million^−1	1.25			
c1ccc(Oc2ccc(C3(N4CCOCC4)COC3)cc2)nc1 [9a, 4-(3-(4-(Pyridin-2-yloxy)Phenyl)Oxetan-3-yl)Morpholine]				43.6 ×10⁻⁶ cm/s	13 μL min^−1 million^−1	1.32			
COc1ccc(C(=O)Nc2ccc3c(c2)OC(F)(F)O3)cc1 [7b, N-(2,2-Difluorobenzo[d][1,3]dioxol-5-yl)-4-Methoxybenzamide]	< 0.1 µM	< 0.1 µM	< 0.1 µM	28.3 ×10⁻⁶ cm/s		3.81			
O=C(c1ccc(S(=O)(=O)c2ccccc2)cc1)N1CCOCC1 [10b, Morpholino(4-(Phenylsulfonyl)Phenyl)Methanone]				37.8 ×10⁻⁶ cm/s	< 2 μL min^−1 million^−1	1.11			
COc1ccc(C2(NCc3ccccc3)COC2)cc1 [2a, N-Benzyl-3-(4-Methoxyphenyl)Oxetan-3-Amine]	521 µM (≈ 140 µg/mL)	359 µM (≈ 96.7 µg/mL)	285 µM (≈ 76.8 µg/mL)	36.5 ×10⁻⁶ cm/s	62 μL min^−1 million^−1	2.49			higher solubility
